These results are taken from ChEMBL document CHEMBL3044825, “Synthesis and in vitro microbial activities of amides of pyridoquinolone” (2011).

Holding throughout (assay type): functional
Settings in all cases: read-out: IZ

One assay relates to Candida albicans. The assay is described as follows: Antifungal activity against Candida albicans at 100 ug/ml by cup-plate method.
The test system of a further assay is Bacillus subtilis. Kind of assay: Antibacterial activity against Bacillus subtilis at 100 ug/ml by cup plate method.
Another assay deals with Staphylococcus aureus. The assay is described as follows: Antibacterial activity against Staphylococcus aureus at 100 ug/ml by cup-plate method.
The test system of another assay is Pseudomonas aeruginosa. The assay is described as follows: Antibacterial activity against Pseudomonas aeruginosa at 100 ug/ml by cup-plate method.
In another assay the test system is Escherichia coli. Kind of assay: Antibacterial activity against Escherichia coli at 100 ug/ml by cup-plate method.

Consider `Cc1ccc(C)c(NC(=O)c2cn(CCO)c3c(cc(O)c4ncccc43)c2=O)c1`, for which the zone of inhibition at 100 µg/mL in the assay with Candida albicans was 2 mm; in the assay with Bacillus subtilis, 9 mm; in the assay with Staphylococcus aureus, 8 mm; in the assay on Pseudomonas aeruginosa, 8 mm; with Escherichia coli it was 9 mm.
For the molecule `O=C(Nc1ccc(S(=O)(=O)Nc2cccc(Cl)c2)cc1)c1cn(CCO)c2c(cc(Cl)c3ncccc32)c1=O`, the zone of inhibition at 100 µg/mL turned out to be 4 mm in the assay with Candida albicans; 9 mm in the assay on Bacillus subtilis; 11 mm in the assay on Staphylococcus aureus; 10 mm with Pseudomonas aeruginosa; 10 mm in the assay with Escherichia coli.
`Cc1ccc(NC(=O)c2cn(CCO)c3c(cc(O)c4ncccc43)c2=O)cc1`: the zone of inhibition at 100 µg/mL came to 3 mm in the assay on Candida albicans; 8 mm with Bacillus subtilis; 9 mm in the assay on Staphylococcus aureus; 9 mm with Pseudomonas aeruginosa; 10 mm in the assay on Escherichia coli.
On to `Cc1cccc(NC(=O)c2cn(CCO)c3c(cc(O)c4ncccc43)c2=O)c1`, for which the zone of inhibition at 100 µg/mL was 1 mm with Candida albicans; 6 mm in the assay on Bacillus subtilis; 5 mm with Staphylococcus aureus; 6 mm in the assay on Pseudomonas aeruginosa; 0 mm in the assay on Escherichia coli.
For `COc1ccccc1NS(=O)(=O)c1ccc(NC(=O)c2cn(CCO)c3c(cc(O)c4ncccc43)c2=O)cc1`, the zone of inhibition at 100 µg/mL with Candida albicans is 1 mm; with Bacillus subtilis, 8 mm; with Staphylococcus aureus, 6 mm; in the assay on Pseudomonas aeruginosa, 6 mm; in the assay with Escherichia coli it was 0 mm.
On to `O=C(NC(=S)Nc1cccc(O)c1)c1cn(CCO)c2c(cc(Cl)c3ncccc32)c1=O`, for which the zone of inhibition at 100 µg/mL was 2 mm in the assay with Candida albicans; 9 mm in the assay on Bacillus subtilis; 8 mm in the assay with Staphylococcus aureus; 6 mm with Pseudomonas aeruginosa; 8 mm in the assay with Escherichia coli.
Turning to `O=C(Nc1ccc(S(=O)(=O)Nc2cccc([N+](=O)[O-])c2)cc1)c1cn(CCO)c2c(cc(O)c3ncccc32)c1=O`, the zone of inhibition at 100 µg/mL turned out to be 2 mm in the assay with Candida albicans; 8 mm in the assay with Bacillus subtilis; 8 mm in the assay with Staphylococcus aureus; 7 mm with Pseudomonas aeruginosa; 8 mm in the assay on Escherichia coli.
On to `Cc1ccc(NC(=O)c2cn(CCO)c3c(cc(Cl)c4ncccc43)c2=O)cc1`, for which the zone of inhibition at 100 µg/mL in the assay on Candida albicans amounted to 0 mm; in the assay with Bacillus subtilis it was 7 mm; with Staphylococcus aureus, 5 mm; with Pseudomonas aeruginosa, 5 mm; in the assay with Escherichia coli, 4 mm.
For the molecule `O=C(NC(=S)Nc1cccc([N+](=O)[O-])c1)c1cn(CCO)c2c(cc(Cl)c3ncccc32)c1=O`, the zone of inhibition at 100 µg/mL in the assay on Candida albicans came to 1 mm; in the assay on Bacillus subtilis, 6 mm; in the assay on Staphylococcus aureus, 8 mm; in the assay on Pseudomonas aeruginosa it was 8 mm; in the assay on Escherichia coli it was 0 mm.
For `O=C(Nc1ccc(S(=O)(=O)Nc2ccc([N+](=O)[O-])cc2)cc1)c1cn(CCO)c2c(cc(Cl)c3ncccc32)c1=O`, the zone of inhibition at 100 µg/mL stood at 3 mm in the assay on Candida albicans; 10 mm in the assay with Bacillus subtilis; 9 mm in the assay with Staphylococcus aureus; 9 mm in the assay with Pseudomonas aeruginosa; 11 mm with Escherichia coli.
Regarding `Cc1cccc(NC(=O)c2cn(CCO)c3c(cc(Cl)c4ncccc43)c2=O)c1`, the zone of inhibition at 100 µg/mL is 4 mm in the assay with Candida albicans; 9 mm in the assay on Bacillus subtilis; 10 mm in the assay with Staphylococcus aureus; 10 mm in the assay with Pseudomonas aeruginosa; 10 mm in the assay on Escherichia coli.
With `Cc1ccc(NS(=O)(=O)c2ccc(NC(=O)c3cn(CCO)c4c(cc(O)c5ncccc54)c3=O)cc2)cc1`, the zone of inhibition at 100 µg/mL in the assay on Candida albicans amounted to 0 mm; in the assay on Bacillus subtilis, 6 mm; with Staphylococcus aureus, 5 mm; in the assay on Pseudomonas aeruginosa, 0 mm; in the assay on Escherichia coli, 5 mm.
`COc1ccc(NC(=S)NC(=O)c2cn(CCO)c3c(cc(O)c4ncccc43)c2=O)cc1`: the zone of inhibition at 100 µg/mL in the assay on Candida albicans amounted to 2 mm; in the assay on Bacillus subtilis, 6 mm; with Staphylococcus aureus it was 8 mm; in the assay on Pseudomonas aeruginosa, 8 mm; with Escherichia coli it was 8 mm.
In the case of `O=C(NC(=S)Nc1cccc(O)c1)c1cn(CCO)c2c(cc(O)c3ncccc32)c1=O`, the zone of inhibition at 100 µg/mL in the assay on Candida albicans was 3 mm; in the assay with Bacillus subtilis, 10 mm; with Staphylococcus aureus, 8 mm; in the assay with Pseudomonas aeruginosa it was 7 mm; in the assay on Escherichia coli, 9 mm.
For the molecule `Cc1ccc(C)c(NS(=O)(=O)c2ccc(NC(=O)c3cn(CCO)c4c(cc(O)c5ncccc54)c3=O)cc2)c1`, the zone of inhibition at 100 µg/mL in the assay on Candida albicans was determined as 4 mm; with Bacillus subtilis, 9 mm; with Staphylococcus aureus it was 11 mm; in the assay with Pseudomonas aeruginosa, 11 mm; in the assay with Escherichia coli, 10 mm.
Consider `O=C(NC(=S)Nc1cccc([N+](=O)[O-])c1)c1cn(CCO)c2c(cc(O)c3ncccc32)c1=O`, for which the zone of inhibition at 100 µg/mL turned out to be 0 mm in the assay with Candida albicans; 7 mm in the assay with Bacillus subtilis; 7 mm in the assay on Staphylococcus aureus; 10 mm in the assay with Pseudomonas aeruginosa; 9 mm in the assay on Escherichia coli.
Regarding `O=C(NC(=S)Nc1ccccc1[N+](=O)[O-])c1cn(CCO)c2c(cc(O)c3ncccc32)c1=O`, the zone of inhibition at 100 µg/mL in the assay with Candida albicans came to 1 mm; with Bacillus subtilis, 5 mm; in the assay on Staphylococcus aureus, 0 mm; with Pseudomonas aeruginosa, 4 mm; in the assay on Escherichia coli it was 5 mm.
In the case of `Cc1ccccc1NC(=O)c1cn(CCO)c2c(cc(Cl)c3ncccc32)c1=O`, the zone of inhibition at 100 µg/mL came out at 0 mm in the assay with Candida albicans; 5 mm with Bacillus subtilis; 0 mm with Staphylococcus aureus; 4 mm with Pseudomonas aeruginosa; 7 mm in the assay on Escherichia coli.
Regarding `O=C(NC(=S)Nc1ccccc1)c1cn(CCO)c2c(cc(Cl)c3ncccc32)c1=O`, the zone of inhibition at 100 µg/mL in the assay on Candida albicans amounted to 3 mm; in the assay with Bacillus subtilis, 11 mm; with Staphylococcus aureus, 9 mm; in the assay with Pseudomonas aeruginosa, 9 mm; in the assay on Escherichia coli it was 10 mm.
Turning to `O=C(NC(=S)Nc1ccc(O)cc1)c1cn(CCO)c2c(cc(Cl)c3ncccc32)c1=O`, the zone of inhibition at 100 µg/mL in the assay on Candida albicans was determined as 5 mm; in the assay with Bacillus subtilis, 11 mm; in the assay with Staphylococcus aureus, 12 mm; with Pseudomonas aeruginosa it was 11 mm; in the assay with Escherichia coli, 12 mm.
